According to patent US10221163B2 (priority 2015, dated 2019):
Read-outs that look alike come from different tables or passages of the source.

Assays:
IMP-1 = IMP-1 (Serratia marcescens, UniProt P52699); experiment: biochemical; format: biochemical; details: fluorescence assay, CCF2-FA substrate, 2 pM enzyme, 2 hours at 25° C.; read-out: IMP-1 IC50
Procedure, shortened: (§1)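 Inhibitor was mixed with the metallo-β-lactamase and CCF2-FA. After 2 hours at 25° C, fluorescence of the coumarin–fluorescein cephalosporin substrate was read. IC50 was calculated with a 4-parameter fit.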

NDM-1 = NDM-1 (Klebsiella pneumoniae, UniProt C7C422); experiment: biochemical; format: biochemical; details: fluorescence assay, CCF2-FA substrate, 1 pM enzyme, 2 hours at 25° C.; read-out: NDM-1 IC50
NDM-1, sequence (C7C422 whole entry, looked up, species assumed): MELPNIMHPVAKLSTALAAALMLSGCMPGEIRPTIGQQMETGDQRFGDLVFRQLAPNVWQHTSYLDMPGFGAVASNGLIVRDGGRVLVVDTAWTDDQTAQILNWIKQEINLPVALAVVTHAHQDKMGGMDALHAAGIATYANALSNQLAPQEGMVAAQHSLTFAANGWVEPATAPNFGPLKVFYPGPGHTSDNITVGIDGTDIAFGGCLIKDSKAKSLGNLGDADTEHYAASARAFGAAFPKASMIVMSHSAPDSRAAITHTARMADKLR
Procedure, shortened: as §1

VIM-1 = VIM-1 (Pseudomonas aeruginosa (strain ATCC 15692 / DSM 22644 / CIP 104116 / JCM 14847 / LMG 12228 / 1C / PRS 101 / PAO1), UniProt A0A0F7KYQ8); experiment: biochemical; details: CCF2-FA substrate, 30 pM enzyme, 2 hours at 25° C.
Procedure, shortened: as §1

[1] = tested on: Escherichia coli expressing NDM-1 (CLB30005, CLB30016); format: cell-based; details: NDM-1 strain, with imipenem 1 μg/ml, 95% inhibition of growth
Procedure, shortened: (§2)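 Imipenem 1 μg/ml + inhibitor; MBL-expressing clinical strains in 1.1×CAMHB, inoculum from saline suspension diluted 1:100; 35° C, 22–24 h; absorbance read-out.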

[2] = tested on: Klebsiella pneumoniae expressing VIM-1 (IHMA599644); format: cell-based; details: VIM-1 strain IHMA599644, with imipenem 1 μg/ml, 95% inhibition of growth
Procedure, shortened: as §2

[3] = tested on: Serratia marcescens expressing IMP-1 (CL5741); format: cell-based; details: IMP-1 strain CL5741, with imipenem 1 μg/ml, 95% inhibition of growth
Procedure, shortened: as §2

[4] = tested on: Pseudomonas aeruginosa efflux+ (MB9798), IMP-1; format: cell-based; details: concentration restoring susceptibility to imipenem at 2 μg/mL in the presence of a class A, C, D serine β-lactamase inhibitor closely related to relebactam
Procedure, shortened: (§3)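 PAO1 pair, broth microdilution; fixed β-lactam (imipenem/ceftazidime) at ~CLSI breakpoint + fixed class A/C BLI for AmpC; serial MBLi titration; endpoint = MBLi conc. restoring susceptibility; MB9798:MB9799 ratio = efflux liability.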

[5] = tested on: Pseudomonas aeruginosa efflux− (MB9799), IMP-1; format: cell-based; details: concentration restoring susceptibility to imipenem at 2 μg/mL in the presence of a class A, C, D serine β-lactamase inhibitor closely related to relebactam
Procedure, shortened: as §3

[6] = tested on: Pseudomonas aeruginosa MB9798 vs MB9799; details: ratio MITC95 PA_9798/MITC95 PA_9799
Procedure, shortened: as §3

[7] = fluorescence assay, read-out: VIM-1 IC50

IMP-1, sequence (P52699 whole entry, looked up, species assumed): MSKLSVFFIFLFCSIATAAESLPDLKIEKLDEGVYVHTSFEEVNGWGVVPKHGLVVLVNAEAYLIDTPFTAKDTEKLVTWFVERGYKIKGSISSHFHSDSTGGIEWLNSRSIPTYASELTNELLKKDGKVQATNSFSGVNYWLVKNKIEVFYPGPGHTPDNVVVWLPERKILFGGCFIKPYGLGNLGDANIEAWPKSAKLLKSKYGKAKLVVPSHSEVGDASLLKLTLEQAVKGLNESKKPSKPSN

Compound	IC50 (IMP-1) [nM]	IC50 (NDM-1) [nM]	IC50 (VIM-1; [7]) [nM]	Escherichia coli MITC95 [1] [µM]	Klebsiella pneumoniae MITC95 [2] [µM]	Serratia marcescens MITC95 [3] [µM]	P. aeruginosa expressing IMP-1, efflux + (MB9798) MITC95 [4] [µM]	P. aeruginosa expressing IMP-1, efflux − (MB9799) MITC95 [5] [µM]	Efflux ratio [6]	IC50 (VIM-1; VIM-1 IC50, fluorescence assay) [nM]
Nc1nc2c(-c3ccc(S(=O)(=O)NC4CNC4)c(S(N)(=O)=O)c3-c3nn[nH]n3)cccc2[nH]1 [Example 252, 4-(2-amino-1H-benzo[d]imidazol-4-yl)-N1-(azetidin-3-yl)-3-(2H-tetrazol-5-yl)benzene-1,2-disulfonamide]	0.654	0.0426	0.149	0.4271	0.8359	0.7383	0.418	0.6133	0.68	–
CN(C1CNC1)S(=O)(=O)c1ccc(-c2cccc3[nH]c(N)nc23)c(-c2nn[nH]n2)c1S(N)(=O)=O [Example 255, 4-(2-amino-1H-benzo[d]imidazol-4-yl)-N1-(azetidin-3-yl)-N1-methyl-3-(2H-tetrazol-5-yl)benzene-1,2-disulfonamide]	2.84	0.113	0.936	0.3906	0.7813	0.7813	1.563	0.7813	2.00	–
CN1CC(NS(=O)(=O)c2ccc(-c3cccc4[nH]c(N)nc34)c(-c3nn[nH]n3)c2S(N)(=O)=O)C1 [Example 256, 4-(2-amino-1H-benzo[d]imidazol-4-yl)-N1-(1-methylazetidin-3-yl)-3-(2H-tetrazol-5-yl)benzene-1,2-disulfonamide]	0.609	0.0416	0.168	0.3906	1.563	0.7813	0.7813	0.7813	1.00	–
CC1(NS(=O)(=O)c2ccc(-c3cccc4[nH]c(N)nc34)c(-c3nn[nH]n3)c2S(N)(=O)=O)CNC1 [Example 257]	0.642	0.033	–	0.3906	0.7813	0.7813	0.7813	0.7813	1.00	0.157
NCCCCNS(=O)(=O)c1ccc(-c2cccc3[nH]c(N)nc23)c(-c2nn[nH]n2)c1S(N)(=O)=O [Example 258, 4-(2-amino-1H-benzo[d]imidazol-7-yl)-N1-(4-aminobutyl)-3-(2H-tetrazol-5-yl)benzene-1,2-disulfonamide]	0.691	0.0535	0.156	0.1953	1.563	0.7813	0.7813	0.7813	1.00	–
Nc1nc2c(-c3ccc(S(=O)(=O)NC[C@H]4CCNC4)c(S(N)(=O)=O)c3-c3nn[nH]n3)cccc2[nH]1 [Example 259, (S)-4-(2-amino-1H-benzo[d]imidazol-4-yl)-N1-(pyrrolidin-3-ylmethyl)-3-(2H-tetrazol-5-yl)benzene-1,2-disulfonamide]	0.836	0.0555	–	0.3906	1.563	0.7813	0.7813	0.7813	1.00	0.229
Nc1nc2c(-c3ccc(S(=O)(=O)NC4CCNCC4)c(S(N)(=O)=O)c3-c3nn[nH]n3)cccc2[nH]1 [Example 260, 4-(2-amino-1H-benzo[d]imidazol-4-yl)-N1-(piperidin-4-yl)-3-(1H-tetrazol-5-yl)benzene-1,2-disulfonamide]	0.648	0.0431	0.151	0.7813	1.563	1.563	0.7813	0.7813	1.00	–
Nc1nc2c(-c3ccc(S(=O)(=O)NC[C@H]4CCCN4)c(S(N)(=O)=O)c3-c3nn[nH]n3)cccc2[nH]1 [Example 261, (R)-4-(2-amino-1H-benzo[d]imidazol-4-yl)-N1-(pyrrolidin-2-ylmethyl)-3-(2H-tetrazol-5-yl)benzene-1,2-disulfonamide]	0.648	0.0691	–	0.1953	0.7813	0.7813	0.7813	0.7813	1.00	0.224
Nc1nc2c(-c3ccc(S(=O)(=O)NC[C@@H]4CCCN4)c(S(N)(=O)=O)c3-c3nn[nH]n3)cccc2[nH]1 [Example 262, (S)-4-(2-amino-1H-benzo[d]imidazol-4-yl)-N1-(pyrrolidin-2-ylmethyl)-3-(2H-tetrazol-5-yl)benzene-1,2-disulfonamide]	0.925	0.0768	–	0.1953	0.7813	0.7813	0.7813	0.7813	1.00	0.295
Nc1nc2c(-c3ccc(S(=O)(=O)NC[C@@H]4CCNC4)c(S(N)(=O)=O)c3-c3nn[nH]n3)cccc2[nH]1 [Example 263, (R)-4-(2-amino-1H-benzo[d]imidazol-4-yl)-N1-(pyrrolidin-3-ylmethyl)-3-(2H-tetrazol-5-yl)benzene-1,2-disulfonamide]	0.864	0.0461	–	0.3906	1.563	0.7813	0.7813	0.7813	1.00	0.205
CC[C@@H](CN)NS(=O)(=O)c1ccc(-c2cccc3[nH]c(N)nc23)c(-c2nn[nH]n2)c1S(N)(=O)=O [Example 264, (S)-4-(2-amino-1H-benzo[d]imidazol-4-yl)-N1-(1-aminobutan-2-yl)-3-(2H-tetrazol-5-yl)benzene-1,2-disulfonamide]	5.93	0.2	0.47	0.7813	1.563	1.563	3.125	0.7813	4.00	–
